Data: patent US5484778A, “Phthalocyanine photosensitizers for photodynamic therapy and methods for their use” (priority 1993, dated 1996)
Where two headings read alike, the source gives them in different places.

Tests used:
[1] = white light
[2] = system: Chinese hamster V79-379 cells; test: Uptake of phthalocyanines by V79 cells relative to AlPcCl (Table 1); format: cell-based
Method: (§1) Chinese hamster V79-379 lung fibroblasts were grown in monolayer culture in McCoy's 5A medium (Gibco Laboratories, Grand Island, N.Y.) augmented with 10% calf serum and buffered with 20 mM HEPES (pH 7.4).
Total uptake was determined by scraping the phthalocyanine-treated monolayer, collecting the cells on a glass-fiber filter, and extracting the phthalocyanine in ethanol, as previously described by Ramakrishnan, et al., 1989. (Ramakrishnan, N., M. E. Clay, M. F. Horng, A. R. Antunez, & H. H. Evans, "DNA Lesions and DNA Degradation in Mouse Lymphoma L5178Y Cells After Photodynamic Treatment Sensitized by Chloroaluminum Phthalocyanine",Photochem. Photobiol, in press, 1989). The amount of drug was determined by absorption at 674 nm and expressed relative to the number of cells, as measured in a Coulter cell counter on an aliquot of the cell population. Controls included cells not treated with drug, medium alone, and drug-containing medium without cells. The results of the total uptake of the various compositions of the present invention in comparison to AlPcCl are set forth below in Table 1.
(§2) The cells were treated with 1 μM AlPcCl (from Eastman Kodak, Rochester, N.Y.) or with phthalocyanine compositions I-VI (0.5-1.0 μM final concentration in the medium) for 18 hours by adding the appropriate volume of a 1.0 mM stock solution in dimethylformamide (DMF) to the culture medium. The growth medium was replaced with 4 ml Hank's balanced salt solution (HBSS), and the cells were irradiated. The light source was a 500 W tungsten-halogen lamp located approximately 29 inches below the surface of a glass exposure tray. The visible light administered to the cells was filtered to allow passage of only that portion of the visible spectrum above 600 nm (Lee Primary red filter No. 106, Vincent Lighting, Cleveland, Ohio). The fluence rate was approximately 0.074 kJ/m^2 /s at the level of the cell monolayer.
All of the compounds have been examined for the extent of cellular uptake after exposure of V79 cells to 1 μM or less in complete medium, and the data of Table 1 are presented relative to the uptake from 1 μM AlPcCl, which was 0.723±0.172 nmole/10^7 cells (mean ±S. D., 25 determinations). […] In particular, when the concentration of Compound IV was 1 μM in the medium, the uptake into the cells was sufficiently high that some of the uptake and phototoxicity studies were repeated at 0.5 μM.

[3] = system: Chinese hamster V79-379 cells; test: Growth delay of V79 cultures after red light (Table 1); format: cell-based; conditions: for Growth Delay, efficiency relative to 1 μM AlPcCl: 18 h, 12 kJ/m^2 red light; for inhibition of V79 culture growth (in words): red light 12 kJ/m^2, three day period
Method: as §1, §2
At the time of light exposure, there were approximately 1.5×10^5 cells per 25 cm^2 flask. Following irradiation, the HBSS was replaced by 10 ml of fresh complete growth medium, and the cultures were returned to the 37° C. incubator. At various times before and after irradiation, duplicate cultures were trypsinized and counted. Controls included untreated cells and cells treated with light alone or drug alone. In addition, in each experiment, the drug to be tested was compared to a standard treatment, i.e. 1 μM AlPcCl for 18 hours followed by 12 kJ/m^2 light.
The inhibition of V79 culture growth was measured during a three day period following red light irradiation (12 kJ/m^2) of phthalocyanine-pretreated cells. With each of the active compounds, as well as with AlPcCl, there was an initial decrease in cell density, as dead cells became detached from the monolayer. Thereafter, the cell number per flask increased, as living cells grew and divided. The time for the cell density to recover to the level at the time of light exposure was considered the growth delay. […] The ratio of the growth delay for the test photosensitizer and the growth delay for AlPcCl measured in the same experiment is recorded in Table 1.

[4] = system: Chinese hamster V79-379 cells; test: Clonogenic cell survival / photocytotoxicity in V79 cells (Table 1, FIG. 1, FIG. 2); format: cell-based
Method: FIG. 1 is a graph illustrating the photodynamic efficacy of the various compositions of the present invention in comparison to AlPcCl. The phthalocyanine composition compounds of the present invention were tested for their photodynamic efficiency against Chinese hamster fibroblast V79 cells by colony formation. Monolayer cultures were treated with the indicated phthalocyanine composition for 18 hours, irradiated with various fluences of red light, and immediately trypsinized and replated at appropriate aliquots in triplicate. Colonies of at least 50 cells were counted after 7-10 days. The plating efficiency of the untreated cells was approximately 90%.
In this regard, in FIG. 2 the data of FIG. 1 were replotted as a function of the product of the amount of cell-associated phthalocyanine and the light fluence.
as §1, §2
Cells were irradiated at a density of approximately 2×10^6 per 25 cm^2 flask. Immediately after irradiation, the cell monolayer was treated with trypsin, and appropriate aliquots were plated in triplicate to give 100 to 200 colonies in each 10-cm Petri dish. Cell survival was determined by the ability of the cells to form colonies containing at least 50 cells. The response of cells treated with 1 μM AlPcCl and light was compared in each experiment.
Photocytotoxicity of the phthalocyanines compounds I to VI was also assessed by clonogenic assay (Table 1, FIG. 1). In all experiments, 1 μM AlPcCl was included for comparison purposes. From the survival curves (FIG. 1), the fluence reducing the cell survival to 10% (F10) was obtained. The ratio of the F10 for AlPcCl and the F10 for the test compound is recorded in Table 1.
In order to take differences in cellular uptake into consideration in the assessment of the relative efficiency of these phthalocyanines as photosensitizers of V79 cells, the survival data were replotted against the product of intracellular phthalocyanine concentration and light fluence (FIG. 2). From these curves, the product of intracellular concentration and light fluence reducing survival to 10% (CF10) was obtained, and comparisons of the values for AlPcCl and the test compounds are recorded in Table 1.

V79 cells [5] = test: Clonogenicity, killing of V79 cells using photodynamic therapy (Table 3); format: cell-based, Chinese hamster
Summary of the method: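 V79 Chinese hamster lung fibroblasts were loaded with 0.5 or 1.0 μM phthalocyanine, then about 18 h later irradiated with increasing doses of 675 nm broad-band red light (tungsten-halogen lamp, 600 nm high-pass filter). Recorded value is the light dose killing 90% of cells, or, failing that, the maximum kill (% survival) and its dose.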

L5178Y cells = test: Induction of apoptosis (DNA fragmentation) in L5178Y-R cells (Table 6); format: cell-based, mouse; conditions: for Minimum Demonstrated Condition to induce apoptosis: C × F / Minimum Demonstrated Condition to induce apoptosis: Fluence: 0.5 μM
Summary of the method: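 Exponentially growing mouse lymphoma L5178Y-R cells loaded 18 hours with phthalocyanine at various concentrations, then irradiated with >600 nm red light (up to 30 kJ/m^2, ~74 W/m^2). DNA isolated 2 hours post-PDT, run on 1.5% agarose; value is minimum PDT dose (concentration × fluence) giving visible DNA ladder.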

viruses = conditions: New York Blood Center (Ben-Hur); cited from earlier work
V79 cells [6] = test: Uptake of additional phthalocyanines into V79 cells (Table 2); conditions: for Uptake into V79 cells: 18 hours
Method: (§3) V79 cells Chinese hamster lung fibroblasts were cultured using the cell culture methods described above. […] When the filters were dry, the phthalocyanines were extracted into ethanol and the absorption determined at the peak wavelength, usually 668 nm.

V79 cells [7] = system: V79 cells
Method: as §3

CCN(CCC[Si](C)(C)O[Si]1(C)n2c3c4ccccc4c2N=C2N=C(N=c4c5ccccc5c(n41)=NC1=NC(=N3)c3ccccc31)c1ccccc12)CCN(C)C (stereo not drawn) [CH3 SiPcOSi(CH3)2 (CH2)3 N(CH2 CH3)(CH2)2 N(CH3)2]
photolysis of solutions [1]: rapidly photolyzed by white light

CN1CCN(CCC[Si](C)(C)O[Si]2(C)n3c4c5ccccc5c3N=C3N=C(N=c5c6ccccc6c(n52)=NC2=NC(=N4)c4ccccc42)c2ccccc23)CC1 (stereo not drawn) [CH3 SiPcOSi(CH3)2 (CH2)3 NC4 H8 NCH3]
photolysis of solutions [1]: rapidly photolyzed by white light

CN(C)CCCN(CCCN(C)C)CCC[Si](C)(C)O[Si]1(C)n2c3c4ccccc4c2N=C2N=C(N=c4c5ccccc5c(n41)=NC1=NC(=N3)c3ccccc31)c1ccccc12 (stereo not drawn) [CH3 SiPcOSi(CH3)2 (CH2)3 N[(CH2)3 N(CH3)2]2]
photolysis of solutions [1]: rapidly photolyzed by white light

CN(C)CCC[Si](C)(C)[O][Al]1[n]2c3c4ccccc4c2N=C2N=C(N=c4c5ccccc5c([n]41)=NC1=NC(=N3)c3ccccc31)c1ccccc12 [Compound I, AlPcOSi(CH3)2 (CH2)3 N(CH3)2]
Uptake, efficiency relative to 1 μM AlPcCl ([2]; 1.0 μM, 18 h): 2.3 | cellular uptake (in words) ([2]; V79 cells, 1 μM or less, compared with AlPcCl): taken up into the cells more efficiently than was AlPcCl | Growth Delay, efficiency relative to 1 μM AlPcCl [3]: 2.1 | inhibition of V79 culture growth (in words) [3]: substantial inhibition | CF10 (AlPcCl)/CF10 (Pc) ([4]; 1.0 μM, 18 h, CF10 = intracellular concentration x fluence reducing survival to 10%): 0.51 | F10 (AlPcCl)/F10 (Pc) ([4]; 1.0 μM, 18 h, F10 = fluence reducing survival to 10%): 0.94 | photosensitizing efficiency / photocytotoxicity (in words) ([4]; V79 cells, red light): nearly as efficient photosensitizers as AlPcCl | solubility in solvents (Solubility): soluble in CH2 Cl2 and toluene

CN(C)CCC[Si](C)(C)O[Si]1(C)n2c3c4ccccc4c2N=C2N=C(N=c4c5ccccc5c(n41)=NC1=NC(=N3)c3ccccc31)c1ccccc12 (stereo not drawn) [Compound III, CH3 SiPcOSi(CH3)2 (CH2)3 N(CH3)2]
Growth Delay, efficiency relative to 1 μM AlPcCl [3]: 0.05 | inhibition of V79 culture growth (in words) [3]: less inhibition of culture growth | photosensitizing efficiency / photocytotoxicity (in words) [4]: low activity | photolysis of solutions [1]: rapidly photolyzed by white light

CCCCCCCCCCCC[N+](C)(C)CCC[Si](C)(C)O[Si]1(O[Si](C)(C)CCC[N+](C)(C)CCCCCCCCCCCC)n2c3c4ccccc4c2N=C2N=C(N=c4c5ccccc5c(n41)=NC1=NC(=N3)c3ccccc31)c1ccccc12 [Compound XIV, SiPc[OSi(CH3)2 (CH2)3 N^+ (CH3)2 (CH2)11 CH3]2 2I^-]
Cell survival at highest light dose at 1 µM (V79 cells [5]; Cricetulus griseus, V79, read-out: Maximum Effect (% survival)): 93% | induction of apoptosis (L5178Y cells; 1 μM at a fluence of 30 kJ/m^2): did not induce apoptosis | purging viruses from blood and/or blood components (viruses): effective at purging viruses from blood and/or blood components | Uptake into V79 cells (V79 cells [6]; 1 μM): 0.03 ± 0.01 n Moles/10^6 cells | Uptake into V79 cells (V79 cells [6]; 4 μM): 0.05 ± 0.01 n Moles/10^6 cells | Uptake into V79 cells, composite value (V79 cells [6]; average of all data): < 0.05 n Moles/10^6 cells/μM | Uptake (from Table 2) (V79 cells [6]; repeated in Table 3): < 0.05 n Moles/10^6 cells/μM

CCCCCCCCCCCC[N+](C)(C)CCC[Si](C)(C)[O][Al]1[n]2c3c4ccccc4c2N=C2N=C(N=c4c5ccccc5c([n]41)=NC1=NC(=N3)c3ccccc31)c1ccccc12.[I-] [Compound XXI, AlPcOSi(CH3)2 (CH2)3 N^+ (CH3)2)(CH2)11 CH3 I^-]
LD 90 (V79 cells [5]; 0.5 μM, 18 h, light dose killing 90% of cells): 15 kJ/m^2 | Minimum Demonstrated Condition to induce apoptosis: C × F (L5178Y cells): 7.5 μm × kJ/m^2 | Minimum Demonstrated Condition to induce apoptosis: Fluence (L5178Y cells): 15.0 kJ/m^2 | Uptake into V79 cells, composite value (V79 cells [7]): 1.3 n Moles/10^6 cells/μM | uptake by V79 cells (in words) (V79 cells [7]): taken up particulary well | purging viruses from blood and/or blood components (viruses): effective at purging viruses from blood and/or blood components

CN1CCN(CCC[Si](C)(C)O[Si]2(O[Si](C)(C)CCCN3CCN(C)CC3)n3c4c5ccccc5c3N=C3N=C(N=c5c6ccccc6c(n52)=NC2=NC(=N4)c4ccccc42)c2ccccc23)CC1 [Compound XXX, SiPc[OSi(CH3)2 (CH2)3 NC4 H8 NCH3]2]
Cell survival at highest light dose (V79 cells [5]; Cricetulus griseus, V79, concentration not given, at 10 kJ/m^2, read-out: Maximum Effect (% survival)): 30% | Minimum Demonstrated Condition to induce apoptosis: C × F (L5178Y cells; DMF-Tween 80): 7.5 μm × kJ/m^2 | Minimum Demonstrated Condition to induce apoptosis: Fluence (L5178Y cells; DMF-Tween 80): 15.0 kJ/m^2 | solubility (Solubility): < 500 µM | solubility in DMF (Solubility): not soluble in DMF

C[Si](C)(CCCN1CCNCC1)O[Si]1(O[Si](C)(C)CCCN2CCNCC2)n2c3c4ccccc4c2N=C2N=C(N=c4c5ccccc5c(n41)=NC1=NC(=N3)c3ccccc31)c1ccccc12 [Compound XXXII, SiPc[OSi(CH3)2 (CH2)3 NC4 H8 NH]2]
Minimum Demonstrated Condition to induce apoptosis: C × F (L5178Y cells; DMF-Tween 80): 2.5 μm × kJ/m^2 | Minimum Demonstrated Condition to induce apoptosis: Fluence (L5178Y cells; DMF-Tween 80): 5 kJ/m^2 | solubility in DMF (Solubility): not soluble in DMF
